# Measurements reported in ChEMBL document CHEMBL1828558, “Discovery of (+)-N-(3-aminopropyl)-N-[1-(5-benzyl-3-methyl-4-oxo-[1,2]thiazolo[5,4-d]pyrimidin-6-yl)-2-methylpropyl]-4-methylbenzamide (AZD4877), a kinesin spindle protein inhibitor and potential anticancer agent” (J Med Chem, 2011).
# Experiments:
# [1] = Half-life in Wistar rat at 6 mg/kg, iv administered as a single bolus dose; assay type: ADME, organism-based; parameters: dose 6 mg/kg, route intravenous; conditions: in vivo
# Kinesin-1 heavy chain = target: T1, Kinesin-1 heavy chain (Homo sapiens, UniProt P33176); test: Inhibition of human GST-conventional kinesin ATPase activity after 20 mins by malachite green assay
# T1 sequence (P33176 whole entry): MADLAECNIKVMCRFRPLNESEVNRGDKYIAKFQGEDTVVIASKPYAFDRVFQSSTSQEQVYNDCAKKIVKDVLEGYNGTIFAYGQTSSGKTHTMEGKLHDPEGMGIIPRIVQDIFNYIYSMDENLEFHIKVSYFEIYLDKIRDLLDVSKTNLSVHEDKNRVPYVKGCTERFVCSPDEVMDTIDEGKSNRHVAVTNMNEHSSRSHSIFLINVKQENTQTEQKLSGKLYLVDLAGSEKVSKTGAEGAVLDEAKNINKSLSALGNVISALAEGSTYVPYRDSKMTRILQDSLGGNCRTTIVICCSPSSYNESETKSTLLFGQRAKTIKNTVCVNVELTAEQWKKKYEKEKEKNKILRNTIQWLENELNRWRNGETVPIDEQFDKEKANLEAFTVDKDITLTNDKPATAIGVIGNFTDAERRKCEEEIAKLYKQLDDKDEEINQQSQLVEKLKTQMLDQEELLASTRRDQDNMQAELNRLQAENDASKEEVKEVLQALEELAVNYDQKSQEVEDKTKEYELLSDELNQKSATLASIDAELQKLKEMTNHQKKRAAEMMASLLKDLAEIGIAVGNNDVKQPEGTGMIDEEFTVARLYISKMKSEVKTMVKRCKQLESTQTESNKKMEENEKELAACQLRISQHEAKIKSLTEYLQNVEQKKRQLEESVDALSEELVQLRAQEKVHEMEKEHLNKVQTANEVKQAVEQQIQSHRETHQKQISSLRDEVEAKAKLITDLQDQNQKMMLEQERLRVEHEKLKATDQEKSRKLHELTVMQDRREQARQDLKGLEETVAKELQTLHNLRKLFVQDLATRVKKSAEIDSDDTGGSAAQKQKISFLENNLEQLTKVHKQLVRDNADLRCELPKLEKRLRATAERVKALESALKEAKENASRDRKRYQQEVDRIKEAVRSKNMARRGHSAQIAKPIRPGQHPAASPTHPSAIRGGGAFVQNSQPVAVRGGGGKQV
# [2] = target: T2, Kinesin-like protein KIF23 (Homo sapiens, UniProt Q02241); test: Inhibition of human recombinant GST-MKLP1 after 20 mins by malachite green assay
# T2 sequence (Q02241 whole entry): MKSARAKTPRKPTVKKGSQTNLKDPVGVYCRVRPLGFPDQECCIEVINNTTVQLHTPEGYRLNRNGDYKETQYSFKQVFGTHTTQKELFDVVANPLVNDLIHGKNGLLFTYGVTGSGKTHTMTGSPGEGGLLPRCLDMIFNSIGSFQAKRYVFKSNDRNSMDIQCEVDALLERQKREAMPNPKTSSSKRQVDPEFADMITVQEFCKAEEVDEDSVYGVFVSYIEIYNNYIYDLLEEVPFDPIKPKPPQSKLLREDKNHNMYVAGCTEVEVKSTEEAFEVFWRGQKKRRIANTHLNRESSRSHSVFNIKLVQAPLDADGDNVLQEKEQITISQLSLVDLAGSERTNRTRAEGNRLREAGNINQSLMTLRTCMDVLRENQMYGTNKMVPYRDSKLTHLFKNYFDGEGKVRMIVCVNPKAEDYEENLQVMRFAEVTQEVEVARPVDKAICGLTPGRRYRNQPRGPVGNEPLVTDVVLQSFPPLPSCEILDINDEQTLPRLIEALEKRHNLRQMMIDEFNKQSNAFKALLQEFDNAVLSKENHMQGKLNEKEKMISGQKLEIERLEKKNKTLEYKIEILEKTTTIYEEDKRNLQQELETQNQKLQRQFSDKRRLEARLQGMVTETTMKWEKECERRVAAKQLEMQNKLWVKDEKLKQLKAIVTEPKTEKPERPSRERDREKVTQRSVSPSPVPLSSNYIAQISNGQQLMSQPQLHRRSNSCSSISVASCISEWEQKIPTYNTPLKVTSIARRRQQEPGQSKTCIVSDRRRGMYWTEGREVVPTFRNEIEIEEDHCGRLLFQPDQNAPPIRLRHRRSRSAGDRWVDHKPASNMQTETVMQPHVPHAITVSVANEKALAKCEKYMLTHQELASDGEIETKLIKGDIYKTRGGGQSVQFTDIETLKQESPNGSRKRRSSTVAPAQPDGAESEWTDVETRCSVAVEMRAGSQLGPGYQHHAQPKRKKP
# [3] = Binding affinity to sodium channel in guinea pig atria by radioligand displacement assay; parameters: species or system Cavia porcellus
compound,measurement,setting,value
"Cc1ccc(C(=O)N(CCCN)C(c2nc3snc(C)c3c(=O)n2Cc2ccccc2)C(C)C)cc1 (single isomer, unassigned; (+)) [AZD-4877]",half-life,[1],3.5 h
same,IC50,Kinesin-1 heavy chain,> 100 µM
same,IC50,[2],50 µM
same,IC50,[3],> 30 µM
